The results in this text go back to patent US20060286040A1, “Medicament compositions comprising a heterocyclic compound and an anticholinergic” (Kyowa Hakko Kogyo Co., Ltd., priority 2003, published 2006).

The test system of the test is guinea pig main bronchus. As to the kind of experiment: EFS-induced cholinergic and tachykininergic contraction in the guinea pig main bronchus (organ bath). The settings on record: for Cholinergic Contraction, % of the first contraction / Tachykininergic contraction, % of the first contraction: EFS 30 V, 0.5 ms, 8 Hz, 15 s, 10 nmol/L tiotropium bromide and/or 30 μmol/L Compound 2, measured 20 min after addition, indomethacin 5 μmol/L, means ± S.E.M.

[1] abbreviates: 10 nmol/L tiotropium bromide and/or 30 μmol/L Compound 2, 20 min after addition.

As to tiotropium bromide, the “Cholinergic Contraction, % of the first contraction” value was 59.7 ± 6.3 % of the first contraction and the “Tachykininergic contraction, % of the first contraction” value is 90.9 ± 8.3 % of the first contraction. Further, the “Effect on EFS-induced cholinergic contraction (in words)” value under setting [1] is recorded as “inhibited the cholinergic contraction”.

For `COc1ccc(C(=O)Cc2c(Cl)cncc2Cl)c2c1OC1(CCCC1)O2` [Compound 2], the “Cholinergic Contraction, % of the first contraction” value is reported as 105.8 ± 2.4 % of the first contraction and the “Tachykininergic contraction, % of the first contraction” value is reported as 66.1 ± 6.5 % of the first contraction. The “Effect on EFS-induced tachykininergic contraction (in words)” value under setting [1] is listed as “inhibited the tachykininergic contraction”.
